Source: PubChem BioAssay AID489023 (Sanford-Burnham Center for Chemical Genomics, 2010)
Calls of active or inactive are those of the source. No rule for the calls is given here.

Test system: 697B cells, BCR-induced NF-kB luciferase reporter luminescence
Test: inhibitors of BCR-induced NF-kB activation, dose response, 697B cells, luciferase luminescence (AID 489023)

Row | SMILES | IC50
1 | COc1ccccc1/C=C1\SC(=S)N(CCC(=O)Nc2cccc(O)c2)C1=O | > 80 µM (inactive)
2 | CC(C)CCNC(=O)CCCOc1cc(=O)n(C)c2ccccc12 | 64.3 µM (inactive)
3 | O=C(CN1C(=O)c2ccccc2S1(=O)=O)c1ccc(Cl)cc1Cl | 0.44 µM
4 | COc1ccc(NS(=O)(=O)c2ccc(-c3coc(C)n3)cc2)cc1OC | > 80 µM (inactive)
5 | COc1cc(/C(C)=N\NC(N)=S)cc(OC)c1OC | 70.7 µM (inactive)
6 | CC(C)C(=O)Nc1ccc(NC(=O)c2ccc3c(c2)OCO3)cc1 | 17.2 µM
7 | CCN1C(=O)Nc2cccc3cccc1c23 | 35.2 µM (inactive)
8 | Cc1nn(C(C)(C)C)c(C)c1/C=N/OC(=O)Nc1ccc(Cl)c(Cl)c1 | 0.74 µM
9 | COC(=O)C(C)Oc1cc(C)cc2oc(=O)c3c(c12)CCC3 (stereo not given) | 58 µM (inactive)
10 | O=C(CCCN1C(=O)/C(=C/c2ccccc2Cl)SC1=S)NNC(=O)c1ccccc1Cl | 4.23 µM
11 | Cn1nnnc1Sc1ncnc2scc(Br)c12 | 0.67 µM
12 | Cc1cc(C)cc(NC(=O)Nc2ccc(NC(=O)c3ccccc3O)cc2)c1 | > 80 µM (inactive)
13 | CC1CCN(C(=O)CCCOc2cc(=O)n(C)c3ccccc23)CC1 | > 80 µM (inactive)
14 | Cn1c(=O)cc(OCCCC(=O)NC2CCCC2)c2ccccc21 | 34.4 µM (inactive)
15 | Cn1c(=O)n(C)c2cc(/C=C3/NC(=O)N(Cc4ccccc4)C3=O)ccc21 | > 80 µM (inactive)
16 | O=C(O)CCSc1ncnc2sc(-c3ccccc3)cc12 | 2.29 µM
17 | CCn1c(=O)cc(SCC(=O)N2CCC(C)CC2)c2ccccc21 | > 80 µM (inactive)
18 | Cc1ccc(C(=O)CSc2nnc(COc3cc(C)cc(C)c3)o2)cc1 | > 80 µM (inactive)
19 | COc1ccc(/C=C2\SC(=S)N(CCC(=O)Nc3ccc(O)cc3)C2=O)cc1 | > 80 µM (inactive)
20 | COc1ccc(-c2ccc(F)cc2)cc1[C@H]1[C@H]2C=CC[C@@H](C)[C@@H]2C(=O)N1Cc1ccccc1 | > 80 µM (inactive)
21 | COc1ccc(NC(=S)NCc2ccccc2)c(OC)c1 | > 80 µM (inactive)
22 | CCOC(=O)N1CCN(c2ncnc3c2[nH]c2ccc(OC)cc23)CC1 | 60 µM (inactive)
23 | CCc1ccc(-c2nnn(CCC(=O)OC)n2)cc1 | 5.46 µM
24 | CCOC(=O)C1CCN(c2ncnc3c2cnn3-c2ccc(Cl)cc2)CC1 | 0.82 µM
25 | Cc1c(CCC(=O)NCCCn2ccnc2)c(=O)oc2c(C)c3oc4c(c3cc12)CCCC4 | 30.4 µM (inactive)

Row | SMILES | IC50
26 | Cn1c(=O)cc(OCC(=O)N2CCC3(CC2)OCCO3)c2ccccc21 | 67.5 µM (inactive)
27 | CN1CCN(C(=O)c2ccccc2N(Cc2ccccc2)S(=O)(=O)c2ccccc2)CC1 | 29.2 µM (inactive)
28 | N=c1ccn2c(n1)O[C@H]1[C@H](O)[C@@H](CO)O[C@H]12 | < 0.16 µM
29 | COc1ccc(/C=C2/SC(=S)N(CCCC(=O)Nc3ccc(O)cc3)C2=O)cc1OC | > 80 µM (inactive)
30 | CCOC(=O)CNC(=O)CSc1nnc(NC(=O)c2ccc(C)cc2)s1 | 6.84 µM
31 | Cc1ccc(/C=C2\SC(=S)N(CCCC(=O)NC3CCCC3)C2=O)cc1 | 1.13 µM
32 | CCOC(=O)Cc1csc(NC(=S)NC(=O)c2ccc(Cl)cc2)n1 | 30.6 µM (inactive)
33 | CCCCOc1ccc(NC(=O)C(=O)NCCCn2ccnc2)cc1 | 10.9 µM
34 | CCN(CC(=O)Nc1c(F)cccc1F)C(=O)C1(c2ccccc2)CC1 | 14.4 µM
35 | CNC(=O)CCc1nc(-c2ccc(C(C)(C)C)cc2)no1 | < 0.16 µM
36 | Cc1ccc(/C=C2\SC(=S)N(CCCC(=O)NNC(=O)c3ccccc3O)C2=O)cc1 | 1.26 µM
37 | Cc1cccn2c(=O)c3cc(C(=O)NC4CCCCC4)c(=N)n(CCN4CCOCC4)c3nc12 | > 80 µM (inactive)
38 | Cc1ccc(C(=O)C[n+]2cc(-c3ccc(C)cc3)n3c2CCCCC3)cc1 | 38.9 µM (inactive)
39 | COc1ccccc1/C=C1/SC(=S)N(CCC(=O)Nc2cccnc2)C1=O | 9.65 µM
40 | CCOc1cc2nc(-c3ccc(OC)c(OC)c3)nc(N3CCOCC3)c2cc1OC | 4.94 µM
41 | CCOC(=O)c1sc(NC(=O)c2cc(-c3ccccc3C)nc3ccccc23)c(C#N)c1C | 19.3 µM
42 | O=C(CCCN1C(=O)S/C(=C/C=C/c2ccccc2)C1=O)Nc1ccc(C(=O)O)cc1 | > 80 µM (inactive)
43 | Cc1cc(NC(=O)CCCN2C(=O)/C(=C/c3ccccc3Cl)SC2=S)no1 | 8.86 µM
44 | COc1cc2c3c(c1)c(N=NC(N)=S)c(O)n3C(C)(C)C=C2C | > 80 µM (inactive)
45 | C=CCOC(=O)COc1cc(C)cc2oc(=O)c3c(c12)CCC3 | > 80 µM (inactive)
46 | Cc1cc(C)cc(N2C(=O)NC(=O)/C(=C\c3cccn3-c3ccccc3)C2=O)c1 | 36.4 µM (inactive)
47 | Cc1ccc(NC(=O)O/N=C/c2c(C)nn(C(C)(C)C)c2C)cc1Cl | < 0.16 µM
48 | O=c1cccc2c1c1cc[nH]c3ccc(=O)n2c31 | 2.1 µM
49 | CCc1ccc2[nH]c3nc(N/N=C/c4cccc(O)c4)nnc3c2c1 | > 80 µM (inactive)
50 | COc1cc(C[C@@H]2C(=O)OC[C@H]2Cc2ccc(OC)c(OC)c2)ccc1O | > 80 µM (inactive)
